Where a name gives a salt, the structure may show the parent alone.
What was measured:
[1] = target: T1, recombinant human Eg5 motor domain protein (Homo sapiens, UniProt P52732); assay: Eg5 enzyme inhibition test (ATPase activity); assay type: biochemical; details: for inhibition of the ATPase activity of Eg5 (in words): 30° C., 30 minutes, absorbance at 360 nm; for Eg5 inhibitory activity compared with the corresponding racemic mixture (in words): versus Compounds 3, 4, 6, 7, 20, 14, 9, 8, the respectively corresponding racemic mixtures
T1 construct: A plasmid expressing the motor domain of human Eg5 was constructed; made in house; host or cells: Escherichia coli BL21 (DE3)
T1 sequence (P52732 18-359 limits assumed): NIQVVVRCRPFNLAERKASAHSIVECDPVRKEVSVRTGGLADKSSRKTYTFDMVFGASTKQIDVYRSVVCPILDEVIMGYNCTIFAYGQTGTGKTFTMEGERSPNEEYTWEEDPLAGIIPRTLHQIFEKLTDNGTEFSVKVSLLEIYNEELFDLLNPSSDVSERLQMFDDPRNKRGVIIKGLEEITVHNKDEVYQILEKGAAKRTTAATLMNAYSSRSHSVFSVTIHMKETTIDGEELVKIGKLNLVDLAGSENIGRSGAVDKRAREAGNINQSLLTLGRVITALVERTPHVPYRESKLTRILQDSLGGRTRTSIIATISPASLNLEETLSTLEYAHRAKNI
Experimental: A recombinant human Eg5 motor domain protein was prepared by referring to the literature [Biochemistry, Vol. 35, p. […] A plasmid expressing the motor domain of human Eg5 was constructed, and transformed into Eseherichia coli BL21 (DE3). The transformant was cultured at 25° C., and when the OD600 reached 0.74, isopropyl-β-D-thiogalactoside was added at a final concentration of 0.5 mmol/L. The transformant was further cultured for 4 hours, and then the culture medium was centrifuged to collect the cells. The cells were suspended in a buffer and ultrasonicated, and then the sonicated solution was centrifuged to recover the supernatant. The supernatant was purified by cation exchange column chromatography to obtain a partially purified sample. Furthermore, the partially purified sample was purified by gel filtration column chromatography to obtain a finally purified sample.
Measurement of the ATPase activity of Eg5 was carried out by referring to the literatures [EMBO Journal, Vol. 13, p. […] Solution A was dispensed into each well of a 96-well plate as 45 μL portions. Solution B was used to serially dilute a test compound. The diluted test compound solutions in a volume of 30 μL were mixed with Solution A added beforehand in each well of the 96-well plate to start the enzymatic reaction. The enzymatic reaction was performed at 30° C. for 30 minutes. […] The relative activity was calculated to calculate IC50 value.

[2] = test system: human acute myeloid leukemia MV-4-11 cells; assay: Cell growth inhibition test on acute myeloid leukemia cells (XTT), MV-4-11; assay type: cell-based; details: MV4-11, same manner as Test Example 1, read-out: growth inhibitory activity, GI50 value
Experimental: (§1) RS4;11 cells (20000 cells/well), K-562 cells (1000 cells/well), or NCI-H929 cells (15000 cells/well) were seeded in each well of 96-well plates (Nunc, catalog No. 167008), and cultured overnight. Test compounds diluted stepwise were added, and the cells were further cultured for 72 hours (final volume: 100 μL/well). Fifty μL XTT labeling mixture of Cell Proliferation Kit II (XTT) (Roche Diagnostics, catalog No. 1465015) was added to each well, and the plates were incubated at 37° C. After 4 hours, absorbance at 490 nm (reference wavelength: 655 nm) was measured with a plate reader (Molecular Device, SpectraMax 340PC^384). Growth ratios of the cells in the wells treated with the test compound was calculated based on the growth ratio of the cells in the control well treated with solvent (dimethyl sulfoxide (DMSO)) for 72 hours, which was defined as 100%.
(§2) As cancer cell lines, human acute myeloid leukemia MV-4-11 cells (ATCC No. CRL-9591) and human non-Hodgkin's lymphoma SR cells (ATCC No. CRL-2262) were used. The cells were cultured at 37° C. in a 5% carbon dioxide atmosphere by using the mediums mentioned below, respectively.
(§3) In the same manner as that of Test Example 1, the cells were seeded (8000 to 16000 cells/well, respectively) in each well of 96-well plates (Nunc, catalog No. 167008), and growth ratios of the cells treated with test compounds were calculated. Measurement of absorbance was performed at 3 to 4 hours after the addition of the XTT labeling mixture.

[3] = test system: human non-Hodgkin's lymphoma SR cells; assay: Cell growth inhibition test on non-Hodgkin's lymphoma cells (XTT), SR; assay type: cell-based; details: same manner as Test Example 1, read-out: growth inhibitory activity, GI50 value
Experimental: as §1, §2, §3

[4] = test system: human acute lymphoblastic leukemia RS4;11 cells; assay: Cell growth inhibition test against hematopoietic tumor cell lines (XTT), RS4;11; assay type: cell-based; details: 72 hours culture with compound, read-out: growth inhibitory activity, GI50 value
From the text: (§4) As hematopoietic tumor cell lines, human acute lymphoblastic leukemia RS4;11 cells (ATCC No. CRL-1873), human chronic myeloid leukemia K-562 cells (ATCC No. CCL-243), and human multiple myeloma NCI-H929 cells (ATCC No. CRL-9068) were used. For the culture of the cells, RPMI 1640 Medium (Invitrogen, catalog No. 11875-093) containing 10% fetal bovine serum (Invitrogen, catalog No. 10099-141), 10 mmol/L 4-(2-hydroxyethyl)-1-piperazinethanesulfonic acid (HEPES) buffer (ICN Biomedicals, catalog No. 1688449), 1 mmol/L sodium pyruvate (Invitrogen, catalog No. 11360-070), 4.5 g/L glucose (Sigma-Aldrich, catalog No. G8769), 100 units/mL penicillin (Invitrogen, catalog No. 15140-122) and 100 μg/mL streptomycin (Invitrogen, catalog No. 15140-122) was used. The cells were cultured at 37° C. in a 5% carbon dioxide atmosphere.
as §1

[5] = test system: human multiple myeloma NCI-H929 cells; assay: Cell growth inhibition test against hematopoietic tumor cell lines (XTT), NCI-H929; assay type: cell-based; details: 72 hours culture with compound, read-out: growth inhibitory activity, GI50 value
From the text: as §4, §1

[6] = test system: human chronic myeloid leukemia K-562 cells; assay: Cell growth inhibition test against hematopoietic tumor cell lines (XTT), K-562; assay type: cell-based; details: K562, 72 hours culture with compound, read-out: growth inhibitory activity, GI50 value
From the text: as §4, §1

SMILES	melting point [°C]	GI50 [2] [µM]	Eg5 inhibitory activity compared with the corresponding racemic mixture (in words) [1]	GI50 [3] [µM]	GI50 [4] [µM]	GI50 [5] [µM]	GI50 [6] [µM]	inhibition of the ATPase activity of Eg5 (in words) [1]
CCNCCS(=O)(=O)NCCC1(c2ccccc2)SC(NC(=O)C(C)(C)C)=NN1C(=O)C(C)(C)C (racemic) [Compound 14, N-{4-(2,2-Dimethylpropionyl)-5-[2-(2-ethylaminoethanesulfonylamino)-ethyl]-5-phenyl-4,5-dihydro-1,3,4-thiadiazol-2-yl}-2,2-dimethylpropanamide]								inhibited the ATPase activity of Eg5 in a concentration-dependent manner
CC(C)(C)C(=O)NC1=NN(C(=O)C(C)(C)C)C(CCCC(=O)NCCO)(c2ccccc2)S1 (single isomer, unassigned) [Compound o, 4-[3-(2,2-Dimethylpropionyl)-5-(2,2-dimethylpropionylamino)-2-phenyl-2,3-dihydro-1,3,4-thiadiazol-2-yl]-N-(2-hydroxyethyl)butanamide]		< 10	stronger inhibitory activities	< 10	< 10	< 10	< 10	inhibited the ATPase activity of Eg5 in a concentration-dependent manner
CC(C)(C)C(=O)NC1=NN(C(=O)C(C)(C)C)C(CN)(c2ccccc2)S1 (centres unmarked) [Compound j, N-[5-Aminomethyl-4-(2,2-dimethylpropionyl)-5-phenyl-4,5-dihydro-1,3,4-thiadiazol-2-yl]-2,2-dimethylpropanamide]					< 10	< 10	< 10	
CC(=O)N1N=C(N2CCCC2=O)SC1(CCNS(C)(=O)=O)c1ccccc1 (centres unmarked) [Compound g, N-{2-[3-Acetyl-5-(2-oxopyrrolidin-1-yl)-2-phenyl-2,3-dihydro-1,3,4-thiadiazol-2-yl]ethyl}methanesulfonamide]	137 to 140							
CC(C)(C)C(=O)NC1=NN(C(=O)C(C)(C)C)C(CN)(c2ccccc2)S1 (centres unmarked) (as salt: hydrochloride) [Compound j, N-[5-Aminomethyl-4-(2,2-dimethylpropionyl)-5-phenyl-4,5-dihydro-1,3,4-thiadiazol-2-yl]-2,2-dimethylpropanamide]	175 to 182							
CC(=O)N1N=C(N2CCCCC2=O)SC1(CCNS(C)(=O)=O)c1ccccc1 (racemic) [Compound 20, N-{2-[3-Acetyl-5-(2-oxopiperidino)-2-phenyl-2,3-dihydro-1,3,4-thiadiazol-2-yl]ethyl}methanesulfonamide]								inhibited the ATPase activity of Eg5 in a concentration-dependent manner
CCNCCS(=O)(=O)NCC1(c2ccccc2)SC(NC(=O)C(C)(C)C)=NN1C(=O)C(C)(C)C (single isomer, unassigned; (-)) [Compound l, (−)-N-[4-(2,2-Dimethylpropionyl)-5-(2-ethylaminoethanesulfonylaminomethyl)-5-phenyl-4,5-dihydro-1,3,4-thiadiazol-2-yl]-2,2-dimethylpropanamide]		< 10	stronger inhibitory activities	< 10	< 10	< 10	< 10	inhibited the ATPase activity of Eg5 in a concentration-dependent manner

Continued, in another order:

melting point [°C]	GI50 [2] [µM]	Eg5 inhibitory activity compared with the corresponding racemic mixture (in words) [1]	GI50 [3] [µM]	GI50 [4] [µM]	GI50 [5] [µM]	GI50 [6] [µM]	SMILES	inhibition of the ATPase activity of Eg5 (in words) [1]
187 to 190							CC(=O)N1N=C(NC(=O)C(C)(C)C)SC1(CCNS(C)(=O)=O)c1ccccc1 (single isomer, unassigned; (-)) [Compound f, (−)-N-[4-Acetyl-5-(2-methanesulfonylaminoethyl)-5-phenyl-4,5-dihydro-1,3,4-thiadiazol-2-yl]-2,2-dimethylpropanamide]	
	< 10	stronger inhibitory activities	< 10	< 10	< 10	< 10	CC(C)C(=O)N1N=C(NC(=O)C(C)(C)C)SC1(CCNS(C)(=O)=O)c1ccccc1 (single isomer, unassigned; (-)) [Compound d, (−)-N-[4-Isobutyryl-5-(2-methanesulfonylaminoethyl)-5-phenyl-4,5-dihydro-1,3,4-thiadiazol-2-yl]-2,2-dimethylpropanamide]	inhibited the ATPase activity of Eg5 in a concentration-dependent manner
	< 10	stronger inhibitory activities	< 10	< 10	< 10	< 10	CCC(=O)N1N=C(NC(=O)C(C)(C)C)SC1(CCNS(C)(=O)=O)c1ccccc1 (single isomer, unassigned; (-)) [Compound b, (−)-N-[5-(2-Methanesulfonylaminoethyl)-5-phenyl-4-propionyl-4,5-dihydro-1,3,4-thiadiazol-2-yl]-2,2-dimethylpropanamide]	inhibited the ATPase activity of Eg5 in a concentration-dependent manner
	< 10	stronger inhibitory activities	< 10	< 10	< 10	< 10	CC(C)(C)C(=O)NC1=NN(C(=O)C(C)(C)C)C(CCNS(C)(=O)=O)(c2ccccc2)S1 (single isomer, unassigned; (-)) [Compound a, (−)-N-[4-(2,2-Dimethylpropionyl)-5-(2-methanesulfonylaminoethyl)-5-phenyl-4,5-dihydro-1,3,4-thiadiazol-2-yl]-2,2-dimethylpropanamide]	inhibited the ATPase activity of Eg5 in a concentration-dependent manner
	< 10	stronger inhibitory activities	< 10	< 10	< 10	< 10	CCNCCS(=O)(=O)NCCC1(c2ccccc2)SC(NC(=O)C(C)(C)C)=NN1C(=O)C(C)(C)C (single isomer, unassigned) [Compound i, N-{4-(2,2-Dimethylpropionyl)-5-[2-(2-ethylaminoethanesulfonylamino)-ethyl]-5-phenyl-4,5-dihydro-1,3,4-thiadiazol-2-yl}-2,2-dimethylpropanamide]	inhibited the ATPase activity of Eg5 in a concentration-dependent manner
